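Interpolation was linear, between the two tested concentrations surrounding the appropriate level; five concentrations were tested over 48 hours in 96-well plates. GI50 = concentration required for 50% inhibition of growth.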 Activity calls are given as the source filed them. Rule as the data show it: active = GI50 up to about 1.1 µM and inactive = higher.
What was measured:
Experiment in all cases: NCI tumour cell line growth inhibition, 48 h
786-0 = system: 786-0
A498 = system: A498
A549 = system: A549
ACHN = system: ACHN
CAKI-1 = system: CAKI-1
CCRF-CEM = system: CCRF-CEM
COLO 205 = system: COLO 205
DLD-1 = system: DLD-1
DMS-114 = system: DMS-114
DMS-273 = system: DMS-273
EKVX = system: EKVX
HCC 2998 = system: HCC 2998
HCT-116 = system: HCT-116
HCT-15 = system: HCT-15
HL-60 = system: HL-60
HOP-62 = system: HOP-62
HT-29 = system: HT-29
IGROV-1 = system: IGROV-1
K562 = system: K562
KM-20L2 = system: KM-20L2
KM12 = system: KM12
LOX IMVI = system: LOX IMVI
LXFL 529 = system: LXFL 529
M14 = system: M14
M19-MEL = system: M19-MEL
MOLT-4 = system: MOLT-4
Malme-3M = system: Malme-3M
NCI-H226 = system: NCI-H226
NCI-H23 = system: NCI-H23
NCI-H460 = system: NCI-H460
NCI-H522 = system: NCI-H522
OVCAR-3 = system: OVCAR-3
OVCAR-4 = system: OVCAR-4
OVCAR-8 = system: OVCAR-8
RPMI-8226 = system: RPMI-8226
RXF 393 = system: RXF 393
SF-268 = system: SF-268
SF-295 = system: SF-295
SF-539 = system: SF-539
SK-MEL-28 = system: SK-MEL-28
SK-MEL-2 = system: SK-MEL-2
SN12C = system: SN12C
SNB-19 = system: SNB-19
SR = system: SR
SW-620 = system: SW-620
TK-10 = system: TK-10
U-251 = system: U-251
UACC-257 = system: UACC-257
UACC-62 = system: UACC-62
UO-31 = system: UO-31
XF498 = system: XF498
HOP-92 = system: HOP-92
OVCAR-5 = system: OVCAR-5
SK-MEL-5 = system: SK-MEL-5
SNB-75 = system: SNB-75
SNB-78 = system: SNB-78

Structure (SMILES): CCOC(=O)/C=C/n1c2ccccc2c(=O)c2ccccc21
- GI50 (786-0): > 100 µM (inactive)
- GI50 (A498): > 100 µM (inactive)
- GI50 (A549): > 100 µM (inactive)
- GI50 (ACHN): > 100 µM (inactive)
- GI50 (CAKI-1): > 100 µM (inactive)
- GI50 (CCRF-CEM): > 100 µM (inactive)
- GI50 (COLO 205): > 100 µM (inactive)
- GI50 (DLD-1): 23.1 µM (inactive)
- GI50 (DMS-114): > 100 µM (inactive)
- GI50 (DMS-273): > 100 µM (inactive)
- GI50 (EKVX): > 100 µM (inactive)
- GI50 (HCC 2998): > 100 µM (inactive)
- GI50 (HCT-116): > 100 µM (inactive)
- GI50 (HCT-15): > 100 µM
- GI50 (HL-60): > 100 µM (inactive)
- GI50 (HOP-62): > 100 µM (inactive)
- GI50 (HT-29): > 100 µM (inactive)
- GI50 (IGROV-1): > 100 µM (inactive)
- GI50 (K562): > 100 µM (inactive)
- GI50 (KM-20L2): > 100 µM (inactive)
- GI50 (KM12): > 100 µM (inactive)
- GI50 (LOX IMVI): > 100 µM (inactive)
- GI50 (LXFL 529): > 100 µM (inactive)
- GI50 (M14): > 100 µM (inactive)
- GI50 (M19-MEL): > 100 µM (inactive)
- GI50 (MOLT-4): > 100 µM (inactive)
- GI50 (Malme-3M): > 100 µM (inactive)
- GI50 (NCI-H226): > 100 µM (inactive)
- GI50 (NCI-H23): > 100 µM (inactive)
- GI50 (NCI-H460): > 100 µM (inactive)
- GI50 (NCI-H522): > 100 µM (inactive)
- GI50 (OVCAR-3): > 100 µM (inactive)
- GI50 (OVCAR-4): > 100 µM (inactive)
- GI50 (OVCAR-8): > 100 µM (inactive)
- GI50 (RPMI-8226): > 100 µM (inactive)
- GI50 (RXF 393): > 100 µM (inactive)
- GI50 (SF-268): > 100 µM (inactive)
- GI50 (SF-295): > 100 µM (inactive)
- GI50 (SF-539): > 100 µM (inactive)
- GI50 (SK-MEL-28): > 100 µM (inactive)
- GI50 (SK-MEL-2): > 100 µM (inactive)
- GI50 (SN12C): > 100 µM (inactive)
- GI50 (SNB-19): > 100 µM (inactive)
- GI50 (SR): > 100 µM (inactive)
- GI50 (SW-620): > 100 µM (inactive)
- GI50 (TK-10): > 100 µM (inactive)
- GI50 (U-251): > 100 µM (inactive)
- GI50 (UACC-257): > 100 µM (inactive)
- GI50 (UACC-62): > 100 µM (inactive)
- GI50 (UO-31): > 100 µM (inactive)
- GI50 (XF498): > 100 µM (inactive)

Structure (SMILES): COC(=O)C1=C(C(=O)OC)C2(C)Nc3ccccc3C2=C(c2ccccc2)C1 (stereo not drawn)
- GI50 (786-0): 22.5 µM (inactive)
- GI50 (A549): 20.4 µM (inactive)
- GI50 (ACHN): 22.1 µM (inactive)
- GI50 (CCRF-CEM): 19.4 µM (inactive)
- GI50 (COLO 205): 19.2 µM (inactive)
- GI50 (DLD-1): 30.4 µM (inactive)
- GI50 (DMS-114): 18.3 µM (inactive)
- GI50 (DMS-273): 21.4 µM (inactive)
- GI50 (EKVX): 28.8 µM (inactive)
- GI50 (HCC 2998): 26.2 µM (inactive)
- GI50 (HCT-116): 19 µM (inactive)
- GI50 (HCT-15): 20.8 µM
- GI50 (HL-60): 19.9 µM (inactive)
- GI50 (HOP-62): 22.4 µM (inactive)
- GI50 (HOP-92): 13.3 µM (inactive)
- GI50 (HT-29): 27.7 µM (inactive)
- GI50 (IGROV-1): 22.1 µM (inactive)
- GI50 (K562): 16.1 µM (inactive)
- GI50 (KM-20L2): 28.1 µM (inactive)
- GI50 (KM12): 13.5 µM (inactive)
- GI50 (LOX IMVI): 25.7 µM (inactive)
- GI50 (LXFL 529): 15.1 µM (inactive)
- GI50 (M14): 17 µM (inactive)
- GI50 (M19-MEL): 24.2 µM (inactive)
- GI50 (MOLT-4): 11.9 µM (inactive)
- GI50 (Malme-3M): 18.4 µM (inactive)
- GI50 (NCI-H23): 19 µM (inactive)
- GI50 (NCI-H460): 19.4 µM (inactive)
- GI50 (NCI-H522): 15.8 µM (inactive)
- GI50 (OVCAR-3): 17.9 µM (inactive)
- GI50 (OVCAR-4): 17.9 µM (inactive)
- GI50 (OVCAR-5): 24.5 µM (inactive)
- GI50 (OVCAR-8): 25 µM (inactive)
- GI50 (RPMI-8226): 10.4 µM (inactive)
- GI50 (RXF 393): 21.3 µM (inactive)
- GI50 (SF-268): 19.1 µM (inactive)
- GI50 (SF-295): 23.2 µM (inactive)
- GI50 (SF-539): 17.1 µM (inactive)
- GI50 (SK-MEL-28): 19.8 µM (inactive)
- GI50 (SK-MEL-2): 17.8 µM (inactive)
- GI50 (SK-MEL-5): 15.5 µM (inactive)
- GI50 (SN12C): 23.7 µM (inactive)
- GI50 (SNB-19): 24 µM (inactive)
- GI50 (SNB-75): 2.13 µM (inactive)
- GI50 (SNB-78): 19 µM (inactive)
- GI50 (SW-620): 26.5 µM (inactive)
- GI50 (TK-10): 26.6 µM (inactive)
- GI50 (U-251): 19.8 µM (inactive)
- GI50 (UACC-257): 17.9 µM (inactive)
- GI50 (UACC-62): 16.7 µM (inactive)
- GI50 (UO-31): 17.9 µM (inactive)
- GI50 (XF498): 12.7 µM (inactive)
